Where two headings read alike, the source gives them in different places. Each block holds one compound with its values, some of them ahead of it.
Target: T1, CsF3′H (Camellia sinensis, UniProt A0A0S2LLA9)
T1 construct: microsomes of Saccharomyces cerevisiae WAT11, which co-expresses an Arabidopsis thaliana P450 reductase; ORF amplified with its own stop codon, no tag stated
Assay: HPLC product formation with recombinant yeast microsomes
Type: biochemical
Conditions: 1.0 mM NADPH, 100 mM sodium phosphate pH 7.0, 30 °C, 30 min
Source text: HPLC product formation with recombinant yeast microsomes on CsF3′H

T1 sequence (A0A0S2LLA9 entry or part of it): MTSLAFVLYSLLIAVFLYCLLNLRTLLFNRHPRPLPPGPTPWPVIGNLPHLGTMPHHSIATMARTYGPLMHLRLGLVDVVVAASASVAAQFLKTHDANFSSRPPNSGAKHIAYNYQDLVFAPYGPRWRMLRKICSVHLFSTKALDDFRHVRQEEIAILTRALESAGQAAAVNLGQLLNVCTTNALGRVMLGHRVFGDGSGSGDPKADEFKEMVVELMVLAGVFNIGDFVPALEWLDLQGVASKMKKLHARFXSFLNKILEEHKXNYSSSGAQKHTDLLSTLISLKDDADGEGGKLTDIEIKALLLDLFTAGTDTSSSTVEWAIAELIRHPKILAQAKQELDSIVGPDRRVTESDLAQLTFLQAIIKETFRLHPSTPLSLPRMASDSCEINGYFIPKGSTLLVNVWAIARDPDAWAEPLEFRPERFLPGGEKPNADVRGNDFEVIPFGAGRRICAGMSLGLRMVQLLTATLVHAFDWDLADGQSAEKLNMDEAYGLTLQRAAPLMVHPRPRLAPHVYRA

Km (racemic substrate, read-out: Dihydrokaempferol): 143.6 ± 0.69 µM
Compound: O=C1c2c(O)cc(O)cc2OC(c2ccc(O)cc2)C1O (racemic) [Dihydrokaempferol]

Km (racemic substrate, read-out: Naringenin): 17.1 ± 0.46 µM
Compound: O=C1CC(c2ccc(O)cc2)Oc2cc(O)cc(O)c21 (racemic) [Naringenin]

Km (read-out: Kaempferol): 68.06 ± 0.43 µM
Compound: O=c1c(O)c(-c2ccc(O)cc2)oc2cc(O)cc(O)c12 [Kaempferol]

— publication PMC4783990, “Cloning and Characterization of a Flavonoid 3′-Hydroxylase Gene from Tea Plant (Camellia sinensis)” (International Journal of Molecular Sciences, 2016)
